Like-named read-outs stand apart in the source and are kept apart here.

The subject of experiment [1] is B16-F10. The experiment is described as follows: Proliferation assay, B16-F10. Particulars: Mus musculus, B16-F10, 72 h, read-out: EC50 growth inhibition B16-F10.
Description: Proliferation assays for adherent cells were conducted by plating cells at 5%-10% confluence in 96 well plates together with compound or 0.1% DMSO. Cells were allowed to grow for 48 h and then Alamar Blue® was added and number of cells was measured by fluorescence on a microplate reader.
Experiment [2] deals with T1, USP9x (Mus musculus, UniProt P70398).
T1 construct: endogenous in cells; host or cells: BaF3
Nature of the experiment: Cy5-Ub-VME profiling of BaF3 lysates. It counts as biochemical, murine. Particulars: BaF3 lysate, approximately 22 bands. On the procedure: Panel A is an image of an immunoblot showing representative scans of lysates treated with compound for 15 min then Cy5-Ub-VME. Panel B is a plot of the bands in each lane using Image J processing and analysis software.
Using Image J, the individual lanes from the lysates were plotted as a function of TU50 concentration.

Experiment [3] deals with purified recombinant USP9x (Homo sapiens, UniProt Q93008). Nature of the experiment: Purified recombinant USP9x, Cy5-Ub-VME activity profiling. It counts as biochemical. Particulars: for inhibition of USP9x in presence of USP7CD: at 12.5 μM; for fluorescent signal of USP9x-(Cy5-Ub-VME) complex: preincubation at 50 or 25 μM. As for the experimental part: Panel A is an image showing that purified recombinant USP9x (7 nM) was treated with the stated compound at 50 μM for 19 min prior to addition of Cy5-Ub-VME for 5 min, then the mixture was resolved by S.D.S-PAGE and analyzed on a typhoon imager. Panel B is an image of an immunoblot showing purified recombinant USP9x (7 nM) and USP7CD (20 nM) were treated with the stated compound at the stated concentration for 19 min prior to addition of Cy5-Ub-VME for 5 min then the mixture was resolved by S.D.S-PAGE and analyzed on a Typhoon imager.

The test system of experiment [4] is MCL1. The experiment is described as follows: MCL1 immunoblot in BaF3 parent cells. It counts as cell-based. Particulars: 15 and 30 μM, 4 h. The text has this: Panel A is an image of a immunoblot showing knockdown of MCL-1 by TU46. […] Panel C is a bar graph showing the quantitation of the blots in Panel A and Panel B.
(§1) MCL1 is required to sustain growth of many transformed cells and is also regulated by USP9x. […] These findings help to explain why these compounds are toxic to Bcr-Abl independent cancer lines, especially BaF3.
A general note: Immunoblotting shows a protein as a band on a membrane.

Experiment [5] concerns the target T2, UCHL3 (Mus musculus, UniProt Q9JKB1).
T2 construct: endogenous in cells; host or cells: BaF3/p210
T2 sequence (Q9JKB1 1-230): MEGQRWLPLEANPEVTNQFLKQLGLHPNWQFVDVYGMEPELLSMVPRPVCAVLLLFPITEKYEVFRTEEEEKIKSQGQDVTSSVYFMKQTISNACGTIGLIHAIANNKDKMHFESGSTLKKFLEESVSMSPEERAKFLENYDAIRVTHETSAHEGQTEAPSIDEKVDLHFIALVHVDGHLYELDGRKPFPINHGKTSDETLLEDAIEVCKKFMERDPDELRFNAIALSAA
Nature of the experiment: Cy5-Ub-VME activity profiling of treated BaF3/p210 cells, UCHL3. It counts as cell-based, murine. Particulars: 50 μM, 4 h. As for the experimental part: FIG. 9 has two panels (A and B) depicting data showing that TUs inhibit DUBs in cells. BaF3/p210 cells were incubated with the stated concentration of compound for 4 h. After this time cells were lysed using beads, lysates were normalized, then exposed to Cy5-Ub-VME for 5 min. After quenching, lysates were resolved by SDS-PAGE, analyzed on typhoon, then stained by Coomassie. Panel A is an image of the SDS-PAGE gel visualized via Typhoon imager. Panel B is an image of the SDS PAGE gel stained with Coomassie.
The increased promiscuity of the inhibitors when the experiment is carried out in cells likely stems from the increased assay time (4 h vs 20 min) coupled with the slow on rates of the inhibitors and their targets.

Experiment [6] has as its target T3, USP9x (Homo sapiens, UniProt Q93008).
T3 construct: Lysate labeling assay on untransfected cells; endogenous in cells; host or cells: K562
Nature of the experiment: HA-Ubiquitin-Vinylsulfone activity profiling in K562 lysates. It counts as biochemical. On the procedure:
Panel B is an image of an immunoblot showing the titration of TCM23 and TCM28 in K562 lysates. Panel C is a plot showing the quantitation of band corresponding to USP9x in panel B. Panel D is an image of an immunoblot showing the titration of WP1130 in K562 lysates. Panel E is a plot showing the quantification of the efficacy of ITCs for the inhibition of USP9x in K562 lysates (see also Table 2).
[…] After this time HA-Ub-VS (1.5 μM) was added and incubated for 15 min. After this time reaction mixture (15 μL) was removed and quenched in 2× (final concentration) reducing Laemeli buffer. The reaction mixtures were heated to 37° C. for 10 min prior to analysis by western blot for HA.

In experiment [7] the test system is Bcr-Abl. The experiment is described as follows: Bcr-Abl immunoblot in BaF3/p210 cells. It counts as cell-based, murine. Particulars: 4 h. On the procedure:
After this time cells were lysed and sonicated in S.D.S. Whole cell lysates were analyzed for Bcr-Abl and tubulin in triplicate. Panel B is a bar graph showing the quantitation of blots in Panel A. Panel C is an image of an immunoblot showing BaF3 cells were treated with various concentrations of TU50 in triplicate for 4 h, and then whole cell lysates were analyzed for Bcr-Abl and tubulin. Panel D is an image of an immunoblot similar to the experiment in Panel C but using TU46. Panel E is an image of an immunoblot similar to the experiment in Panel D but using TU49. Panel F is a plot showing the quantification of blots in Panel C, Panel D, and Panel E.
Proliferation inhibition/apoptosis assays and lysate activity profiling were all consistent with USP9x inhibition. Next, whether cell death in BaF3/p210 cells occurred through degradation of Bcr-Abl was validated. […] Encouragingly, the EC50 for Bcr-Abl degradation was 8±2 μM for TU50, which is within 2 fold of the proliferation inhibition EC50 obtained above (FIG. 7, Panel C).

Experiment [8] relates to BaF3 parent. The experiment is described as follows: Growth inhibition assay, BaF3 parent. It counts as cell-based. Particulars: at higher concentrations than BaF3/p210.
Description: as §1

Experiment [9] deals with K562 cells. Nature of the experiment: Annexin V-FITC/PI apoptosis assay, K562. It counts as cell-based. Particulars: 15 or 30 μM, 24 h. On the procedure:
(§2) (each point is shown as mean+/−s.d. of 2 replicates). Panel A is a bar graph showing the data for HeLa cells (30 μM); Panel B is a bar graph showing the data for K562 (30 μM); Panel C is a bar graph showing the data for K562 (15 μM).
(§3) Since K562 cells are dependent upon Bcr-Abl for survival, it was predicted that these cells would also be susceptible to TU compounds. However, K562 cells gave a very weak signal in the Alamar Blue® assay. In lieu of the Alamar Blue assay, an apoptosis assay was used to show susceptibility. This assay uses fluorescein-modified Annexin V to detect phosphatidyl serine (PS) on the cell surface. See Vermes et al., J. Immon. Meth. 184, 39-51 (1995). PS is typically expressed on the inner leaflet of the cell membrane. However in the early stages of apoptosis, PS translocates to the outer leaflet and can be bound by Annexin V. Thus, during apoptosis cells will become greener in the presence of Annexin V-Fluorescine.

Experiment [10] deals with HeLa cells. The experiment is described as follows: Annexin V-FITC/PI apoptosis assay, HeLa. It counts as cell-based. Particulars: 15 or 30 μM, 24 h. As for the experimental part: as §2, §3
Where [11] appears, read: HA-Ub-VS profiling, values in text, read-out: EC50 for USP9x.
Where [12] appears, read: inhibition of USP9x in K562 lysates, data from FIG. 1, read-out: EC50.
[13] abbreviates: whole cell lysates sonicated, read-out: EC50 for Bcr-Abl degradation/knockdown.

purified recombinant USP9x, sequence (Q93008 whole entry, species assumed): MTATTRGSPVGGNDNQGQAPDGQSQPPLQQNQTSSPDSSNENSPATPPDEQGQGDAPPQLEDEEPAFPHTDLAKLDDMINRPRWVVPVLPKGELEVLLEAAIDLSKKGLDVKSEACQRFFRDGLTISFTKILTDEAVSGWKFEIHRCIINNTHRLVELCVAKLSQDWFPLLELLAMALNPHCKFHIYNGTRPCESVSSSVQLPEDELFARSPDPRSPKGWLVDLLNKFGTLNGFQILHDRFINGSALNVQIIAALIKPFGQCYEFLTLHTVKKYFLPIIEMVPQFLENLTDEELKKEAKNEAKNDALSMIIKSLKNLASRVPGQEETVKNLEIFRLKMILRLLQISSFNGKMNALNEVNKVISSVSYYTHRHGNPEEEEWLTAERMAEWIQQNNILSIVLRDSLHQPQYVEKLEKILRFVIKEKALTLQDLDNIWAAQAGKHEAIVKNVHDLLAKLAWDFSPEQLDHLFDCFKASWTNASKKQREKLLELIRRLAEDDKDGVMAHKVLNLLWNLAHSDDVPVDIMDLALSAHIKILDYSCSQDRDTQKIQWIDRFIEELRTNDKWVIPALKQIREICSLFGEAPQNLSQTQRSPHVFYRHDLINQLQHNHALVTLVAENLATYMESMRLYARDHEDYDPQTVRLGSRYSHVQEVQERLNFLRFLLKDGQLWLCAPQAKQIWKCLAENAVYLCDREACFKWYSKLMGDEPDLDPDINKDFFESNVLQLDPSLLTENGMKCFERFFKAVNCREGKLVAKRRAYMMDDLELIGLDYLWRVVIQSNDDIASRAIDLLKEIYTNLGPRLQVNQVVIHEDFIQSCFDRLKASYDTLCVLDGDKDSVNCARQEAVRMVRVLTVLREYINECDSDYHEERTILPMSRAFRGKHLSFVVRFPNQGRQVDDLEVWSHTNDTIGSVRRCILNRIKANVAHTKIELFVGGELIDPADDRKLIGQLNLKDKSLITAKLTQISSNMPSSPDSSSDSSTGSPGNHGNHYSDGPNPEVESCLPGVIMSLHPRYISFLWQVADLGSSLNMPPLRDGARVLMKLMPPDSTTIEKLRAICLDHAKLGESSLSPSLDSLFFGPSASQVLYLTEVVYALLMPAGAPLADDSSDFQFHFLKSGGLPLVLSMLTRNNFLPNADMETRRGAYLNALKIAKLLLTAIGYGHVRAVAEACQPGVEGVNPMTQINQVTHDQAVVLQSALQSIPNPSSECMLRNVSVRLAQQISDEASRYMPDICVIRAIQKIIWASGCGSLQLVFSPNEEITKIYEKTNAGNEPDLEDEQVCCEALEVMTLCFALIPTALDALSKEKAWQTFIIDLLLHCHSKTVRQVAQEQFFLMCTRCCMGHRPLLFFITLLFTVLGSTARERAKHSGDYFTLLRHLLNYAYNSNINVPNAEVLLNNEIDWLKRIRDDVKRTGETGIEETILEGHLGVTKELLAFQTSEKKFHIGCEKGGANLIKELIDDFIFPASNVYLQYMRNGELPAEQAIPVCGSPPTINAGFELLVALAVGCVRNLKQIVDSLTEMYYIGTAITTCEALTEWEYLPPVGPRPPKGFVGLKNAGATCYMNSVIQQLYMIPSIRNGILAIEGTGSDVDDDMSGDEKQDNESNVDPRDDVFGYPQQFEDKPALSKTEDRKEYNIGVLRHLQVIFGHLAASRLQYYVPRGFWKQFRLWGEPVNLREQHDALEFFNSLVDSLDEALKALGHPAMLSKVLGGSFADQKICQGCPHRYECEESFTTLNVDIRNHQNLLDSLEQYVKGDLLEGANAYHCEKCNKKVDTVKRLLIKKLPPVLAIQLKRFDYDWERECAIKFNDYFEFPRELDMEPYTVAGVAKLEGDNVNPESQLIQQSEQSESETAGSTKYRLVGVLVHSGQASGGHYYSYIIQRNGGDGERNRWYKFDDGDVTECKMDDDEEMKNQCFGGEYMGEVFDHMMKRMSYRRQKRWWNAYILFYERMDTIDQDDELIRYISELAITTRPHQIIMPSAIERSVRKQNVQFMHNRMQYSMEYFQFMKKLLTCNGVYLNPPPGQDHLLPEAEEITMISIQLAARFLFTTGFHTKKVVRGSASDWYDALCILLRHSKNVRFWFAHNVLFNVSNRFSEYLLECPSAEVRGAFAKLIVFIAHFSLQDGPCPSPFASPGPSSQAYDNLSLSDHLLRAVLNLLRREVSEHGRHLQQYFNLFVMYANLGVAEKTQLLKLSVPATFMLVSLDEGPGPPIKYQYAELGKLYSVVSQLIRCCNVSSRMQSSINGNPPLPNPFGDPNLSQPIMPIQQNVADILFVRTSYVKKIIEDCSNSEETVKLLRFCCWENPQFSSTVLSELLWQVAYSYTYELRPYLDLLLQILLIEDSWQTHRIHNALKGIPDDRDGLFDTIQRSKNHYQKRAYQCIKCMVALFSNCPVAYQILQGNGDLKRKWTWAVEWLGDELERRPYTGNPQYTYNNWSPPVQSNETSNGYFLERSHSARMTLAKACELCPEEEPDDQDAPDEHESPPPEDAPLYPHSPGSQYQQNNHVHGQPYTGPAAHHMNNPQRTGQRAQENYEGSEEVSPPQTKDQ
T3 sequence (Q93008 whole entry): as the sequence (Q93008 whole entry, species assumed) above
T1 sequence (P70398 whole entry): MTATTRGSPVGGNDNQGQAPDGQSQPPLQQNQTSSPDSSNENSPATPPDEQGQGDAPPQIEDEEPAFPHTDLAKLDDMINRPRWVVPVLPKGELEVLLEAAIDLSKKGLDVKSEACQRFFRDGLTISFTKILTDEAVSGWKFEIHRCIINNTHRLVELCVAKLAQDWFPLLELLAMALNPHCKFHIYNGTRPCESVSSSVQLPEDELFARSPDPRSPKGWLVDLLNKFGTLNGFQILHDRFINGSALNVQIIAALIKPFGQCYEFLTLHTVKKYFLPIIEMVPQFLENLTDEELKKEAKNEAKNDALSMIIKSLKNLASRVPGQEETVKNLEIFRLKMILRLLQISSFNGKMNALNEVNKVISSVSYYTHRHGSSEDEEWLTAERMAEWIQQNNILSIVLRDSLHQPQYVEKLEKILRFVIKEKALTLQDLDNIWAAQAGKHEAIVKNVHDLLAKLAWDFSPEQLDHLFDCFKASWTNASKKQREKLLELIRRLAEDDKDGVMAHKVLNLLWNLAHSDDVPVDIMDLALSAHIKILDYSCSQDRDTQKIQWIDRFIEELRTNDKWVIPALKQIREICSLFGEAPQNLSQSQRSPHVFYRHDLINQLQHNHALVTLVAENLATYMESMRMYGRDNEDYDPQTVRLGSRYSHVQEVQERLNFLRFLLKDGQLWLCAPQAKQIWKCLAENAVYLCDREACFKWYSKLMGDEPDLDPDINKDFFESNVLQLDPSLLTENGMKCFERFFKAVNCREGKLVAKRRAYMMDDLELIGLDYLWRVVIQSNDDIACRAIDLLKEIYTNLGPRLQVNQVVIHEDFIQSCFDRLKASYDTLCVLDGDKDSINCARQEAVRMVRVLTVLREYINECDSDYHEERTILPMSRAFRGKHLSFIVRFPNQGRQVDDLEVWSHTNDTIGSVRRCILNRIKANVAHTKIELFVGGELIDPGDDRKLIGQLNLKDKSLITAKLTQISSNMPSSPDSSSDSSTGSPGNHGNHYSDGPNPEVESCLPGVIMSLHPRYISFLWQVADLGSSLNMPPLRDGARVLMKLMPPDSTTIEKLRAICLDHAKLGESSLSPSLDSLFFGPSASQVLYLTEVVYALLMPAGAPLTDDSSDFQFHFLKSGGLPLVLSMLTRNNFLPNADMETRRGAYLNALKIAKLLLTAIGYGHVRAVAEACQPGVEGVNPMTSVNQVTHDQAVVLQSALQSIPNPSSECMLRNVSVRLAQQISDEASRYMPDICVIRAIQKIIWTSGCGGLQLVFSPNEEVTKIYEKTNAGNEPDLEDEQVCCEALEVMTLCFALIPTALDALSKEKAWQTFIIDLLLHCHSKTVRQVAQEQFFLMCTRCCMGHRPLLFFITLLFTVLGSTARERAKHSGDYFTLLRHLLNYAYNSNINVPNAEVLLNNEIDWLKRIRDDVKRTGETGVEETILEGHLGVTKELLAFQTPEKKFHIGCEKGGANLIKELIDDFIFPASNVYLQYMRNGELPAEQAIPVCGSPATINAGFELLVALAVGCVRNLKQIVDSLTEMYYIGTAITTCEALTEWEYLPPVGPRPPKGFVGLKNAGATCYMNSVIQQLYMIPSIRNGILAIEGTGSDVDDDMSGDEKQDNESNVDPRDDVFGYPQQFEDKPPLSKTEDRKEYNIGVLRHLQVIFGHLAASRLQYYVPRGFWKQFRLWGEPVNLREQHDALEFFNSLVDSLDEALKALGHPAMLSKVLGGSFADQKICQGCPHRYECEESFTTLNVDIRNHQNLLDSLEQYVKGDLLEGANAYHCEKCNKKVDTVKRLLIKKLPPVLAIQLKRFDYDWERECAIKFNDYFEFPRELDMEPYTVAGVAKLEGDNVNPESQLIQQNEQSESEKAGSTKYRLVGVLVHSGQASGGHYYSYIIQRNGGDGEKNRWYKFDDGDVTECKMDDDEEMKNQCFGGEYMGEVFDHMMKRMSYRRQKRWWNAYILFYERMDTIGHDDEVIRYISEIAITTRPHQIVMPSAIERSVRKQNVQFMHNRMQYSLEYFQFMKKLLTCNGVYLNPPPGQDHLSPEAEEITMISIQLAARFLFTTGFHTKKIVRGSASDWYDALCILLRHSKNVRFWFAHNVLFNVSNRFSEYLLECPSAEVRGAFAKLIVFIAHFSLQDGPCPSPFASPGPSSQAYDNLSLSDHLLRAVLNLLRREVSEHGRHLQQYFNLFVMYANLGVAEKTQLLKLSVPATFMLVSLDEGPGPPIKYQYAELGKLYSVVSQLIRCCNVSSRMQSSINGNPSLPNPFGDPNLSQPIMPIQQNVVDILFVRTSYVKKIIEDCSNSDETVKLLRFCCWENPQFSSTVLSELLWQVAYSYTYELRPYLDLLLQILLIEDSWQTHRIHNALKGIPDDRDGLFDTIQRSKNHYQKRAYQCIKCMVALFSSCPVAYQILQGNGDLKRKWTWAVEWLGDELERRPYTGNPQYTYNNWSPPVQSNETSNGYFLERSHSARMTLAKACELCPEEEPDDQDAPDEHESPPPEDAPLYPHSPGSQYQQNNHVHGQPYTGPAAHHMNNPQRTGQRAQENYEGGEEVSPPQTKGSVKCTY

As to `CC(C)(C)OC(=O)NCCc1ccc(N=C=S)cc1` [TU46], the EC50 in experiment [1] is 70 ± 20 µM; in experiment [6] (setting [11]), 6 to 12 µM; in experiment [6] (setting [12]), 12 µM; in [7] (unsonicated, read-out: EC50 for Bcr-Abl knockdown) it was 15 ± 7 µM; in experiment [7] (setting [13]), 9 ± 3 µM. Further, the “selectivity for USP9x among Cy5-Ub-VME reactive bands” value in [2] is on record as “selective for USP9x”. In addition, the “inhibition of USP9x in presence of USP7CD” value in experiment [3] is reported as “strongly inhibited”. In addition, in [3], the “fluorescent signal of USP9x-(Cy5-Ub-VME) complex” value was “oblation of the fluorescent signal”. The “knockdown of MCL1” value in [4] is given as “very effective”. In addition, the “effect on UCHL3” value in experiment [5] was “relatively unaffected”. In addition, in experiment [6], the “inhibition of USP9x” value is listed as “significant inhibition”. Besides, the “susceptibility of BaF3 parent (growth inhibition)” value in experiment [8] was “susceptible”. Further, the “apoptosis and necrosis in K562” value in experiment [9] was “large increase in both apoptosis and necrosis”. Also, the “apoptosis in HeLa” value in experiment [10] is on record as “no apoptosis was detected”.

As to `CC(C)(C)OC(=O)NCc1cccc(N=C=S)c1` [TU50], the EC50 in experiment [1] was 85 ± 10 µM; in experiment [6] (setting [11]), 6 to 12 µM; in [6] (setting [12]), 9 µM; in experiment [7] (setting [13]), 8 ± 2 µM. The “selectivity for USP9x among Cy5-Ub-VME reactive bands” value in experiment [2] is reported as “clearly the most affected”. For the same compound, in experiment [3], the “inhibition of USP9x in presence of USP7CD” value is given as “strongly inhibited”. Moreover, the “fluorescent signal of USP9x-(Cy5-Ub-VME) complex” value in experiment [3] is “oblation of the fluorescent signal”. In experiment [4], the “knockdown of MCL1” value is “very effective”. Besides, in [5], the “effect on UCHL3” value is recorded as “relatively unaffected”. Moreover, in [6], the “inhibition of USP9x” value is listed as “significant inhibition”. Moreover, in experiment [8], the “susceptibility of BaF3 parent (growth inhibition)” value is “susceptible”. Besides, the “apoptosis and necrosis in K562” value in experiment [9] is “large increase in both apoptosis and necrosis”. Further, the “apoptosis in HeLa” value in experiment [10] is reported as “no apoptosis was detected”.

As to `O=C(NCc1ccc(N=C=S)cc1)OCc1ccccc1` [TU49], the EC50 in [1] was about 30 µM; in experiment [7] (setting [13]) it was 9 ± 5 µM. The “knockdown of MCL1” value in experiment [4] was “not as efficient”. Besides, in experiment [5], the “effect on UCHL3” value is recorded as “relatively unaffected”. For the same compound, the “apoptosis and necrosis in K562” value in [9] is “large increase in both apoptosis and necrosis”. For the same compound, the “apoptosis in HeLa” value in [10] is given as “no apoptosis was detected”.

(Values after US10017463B2, “Inhibitors of deubiquitinating proteases” (Brandeis University, priority 2014, dated 2018).)
